Results on 15 compounds are retold here after patent US11186564B2, “Dual NAV1.2/5HT2a inhibitors for treating CNS disorders” (Sunovion Pharmaceuticals Inc., priority 2016, dated 2021).

In assay [1] the target is human sodium channel NaV1.2 (Homo sapiens, UniProt Q99250). The assay can be described thus: NaV1.2 inhibition, automated patch-clamp (Q-Patch HTX), slow inactivated state (state C). The format is cell-based. The settings on record: hNaV1.2 CHO cells, slow inactivated state; for pIC50: read-out: NaV1.2 IC50; for inhibition at 10 µM: 10 μM compound, read-out: NaV1.2 (% inh), 10 μM; for inhibition at 1 µM: 1 μM compound, read-out: NaV1.2 (% inh), 1 μM. The essentials: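 CHO K-1 cells stably expressing human NaV1.2, whole-cell automated patch clamp, holding −100 mV; slow-inactivated state (state C) read at a 5 ms step to 0 mV after 10 s at −50 mV and 15 ms at −90 mV. Percent inhibition vs vehicle; IC50 by nonlinear least-squares fit.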
A general note: Patch clamp records ionic current or voltage across a cell membrane.

Assay [2] has as its target T1, recombinant human serotonin receptor 5-HT2A (Homo sapiens, UniProt P28223).
T1 construct: expressed in transfected cells; method B: loaded with Ca2+ dye
Briefly: 5-HT2A antagonist Ca2+ assay in CHO-K1 cells (method A aequorin luminescence / method B FLIPR fluorescence). The format is cell-based. The settings on record: antagonist mode vs EC80 of reference agonist, method A or B, read-out: 5HT2A IC50. The method in brief:
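Method A: CHO-K1 cells co-expressing human 5-HT2A and mitochondrial apoaequorin were given reference agonist at EC80 15 min after compound, with luminescence read. Method B: dye-loaded 5-HT2A CHO-K1 cells were pretreated with compound, then given serotonin at EC80, with FLIPR fluorescence read. IC50s came from nonlinear fits of percent inhibition.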

pIC50: −log10 of the molar value. A value given as a limit tells only on which side of the number the result lay.

Sequence of human sodium channel NaV1.2 (Q99250 whole entry): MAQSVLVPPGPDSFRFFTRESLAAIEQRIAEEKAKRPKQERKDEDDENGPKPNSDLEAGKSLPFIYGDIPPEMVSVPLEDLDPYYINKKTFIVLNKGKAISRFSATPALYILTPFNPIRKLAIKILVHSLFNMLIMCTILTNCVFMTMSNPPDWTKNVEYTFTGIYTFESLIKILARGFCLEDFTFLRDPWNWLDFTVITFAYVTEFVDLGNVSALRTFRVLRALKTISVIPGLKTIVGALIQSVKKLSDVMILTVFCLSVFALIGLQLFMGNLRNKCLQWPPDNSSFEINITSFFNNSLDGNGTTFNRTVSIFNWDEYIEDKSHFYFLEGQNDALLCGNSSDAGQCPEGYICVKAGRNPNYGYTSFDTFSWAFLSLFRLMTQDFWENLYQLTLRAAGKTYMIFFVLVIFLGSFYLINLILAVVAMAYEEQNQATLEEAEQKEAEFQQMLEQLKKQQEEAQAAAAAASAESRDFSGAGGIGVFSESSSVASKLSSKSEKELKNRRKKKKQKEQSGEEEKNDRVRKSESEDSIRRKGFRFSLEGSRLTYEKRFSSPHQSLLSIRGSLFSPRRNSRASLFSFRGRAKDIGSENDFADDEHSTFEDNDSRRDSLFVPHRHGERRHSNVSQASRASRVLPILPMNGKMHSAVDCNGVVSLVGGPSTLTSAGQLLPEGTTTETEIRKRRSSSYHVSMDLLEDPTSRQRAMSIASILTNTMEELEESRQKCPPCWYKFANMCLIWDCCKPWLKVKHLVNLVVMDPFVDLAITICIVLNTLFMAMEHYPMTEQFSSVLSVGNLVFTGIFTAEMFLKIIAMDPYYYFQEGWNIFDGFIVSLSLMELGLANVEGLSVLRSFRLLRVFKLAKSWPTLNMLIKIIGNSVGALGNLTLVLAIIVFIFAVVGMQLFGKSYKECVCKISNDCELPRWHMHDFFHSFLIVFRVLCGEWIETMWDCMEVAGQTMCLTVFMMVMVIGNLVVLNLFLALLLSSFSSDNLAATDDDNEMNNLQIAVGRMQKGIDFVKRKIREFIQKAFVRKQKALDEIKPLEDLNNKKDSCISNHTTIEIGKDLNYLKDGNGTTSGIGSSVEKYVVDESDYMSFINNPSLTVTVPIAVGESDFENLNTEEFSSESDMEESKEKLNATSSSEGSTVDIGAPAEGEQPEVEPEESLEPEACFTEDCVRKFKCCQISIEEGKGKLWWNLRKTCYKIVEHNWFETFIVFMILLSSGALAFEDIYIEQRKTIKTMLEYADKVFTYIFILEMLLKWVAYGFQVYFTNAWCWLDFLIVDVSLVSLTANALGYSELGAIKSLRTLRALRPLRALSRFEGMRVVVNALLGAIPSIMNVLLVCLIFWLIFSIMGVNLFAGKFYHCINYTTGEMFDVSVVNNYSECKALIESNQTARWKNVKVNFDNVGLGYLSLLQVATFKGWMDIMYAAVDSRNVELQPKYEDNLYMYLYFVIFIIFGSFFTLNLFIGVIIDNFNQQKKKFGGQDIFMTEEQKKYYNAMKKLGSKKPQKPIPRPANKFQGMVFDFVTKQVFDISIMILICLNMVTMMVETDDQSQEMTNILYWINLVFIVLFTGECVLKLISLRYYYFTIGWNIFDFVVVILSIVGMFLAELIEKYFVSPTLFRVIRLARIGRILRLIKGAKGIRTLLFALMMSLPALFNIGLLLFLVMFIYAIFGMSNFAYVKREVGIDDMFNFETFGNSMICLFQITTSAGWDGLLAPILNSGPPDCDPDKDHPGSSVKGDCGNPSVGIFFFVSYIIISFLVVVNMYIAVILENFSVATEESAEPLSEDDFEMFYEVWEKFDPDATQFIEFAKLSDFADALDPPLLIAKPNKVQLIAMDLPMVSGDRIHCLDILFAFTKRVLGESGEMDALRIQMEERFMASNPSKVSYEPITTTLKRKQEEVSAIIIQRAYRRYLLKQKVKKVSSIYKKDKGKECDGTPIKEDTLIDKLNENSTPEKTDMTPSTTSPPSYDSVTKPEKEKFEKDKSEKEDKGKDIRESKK
T1 sequence (P28223 whole entry): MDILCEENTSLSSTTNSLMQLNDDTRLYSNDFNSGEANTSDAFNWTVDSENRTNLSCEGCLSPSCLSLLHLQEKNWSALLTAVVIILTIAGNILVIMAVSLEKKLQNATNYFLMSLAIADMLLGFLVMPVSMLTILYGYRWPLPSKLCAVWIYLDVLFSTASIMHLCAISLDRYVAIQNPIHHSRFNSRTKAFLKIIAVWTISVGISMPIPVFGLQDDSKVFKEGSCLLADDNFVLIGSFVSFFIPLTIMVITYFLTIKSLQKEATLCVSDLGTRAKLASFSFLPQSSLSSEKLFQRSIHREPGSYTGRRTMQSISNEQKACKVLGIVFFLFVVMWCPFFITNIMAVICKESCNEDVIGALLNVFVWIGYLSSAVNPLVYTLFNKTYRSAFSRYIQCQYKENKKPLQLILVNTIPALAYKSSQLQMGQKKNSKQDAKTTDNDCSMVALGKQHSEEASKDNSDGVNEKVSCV

As for `Fc1ccc(OC2CCN(CCC3Cc4ccccc4C3)CC2)cc1` [Example 178, 1-(2-(2,3-dihydro-1H-inden-2-yl)ethyl)-4-(4-fluorophenoxy)piperidine], the pIC50 is 5.72 in assay [1] and 7.52 in assay [2].

For the compound `OC(CO[C@@H]1CCc2ccccc21)CN1CC[C@@H](Oc2ccc(F)cc2)C1` (stereo partly drawn) [Example 44, 1-(((R)-2,3-dihydro-1H-inden-1-yl)oxy)-3-((R)-3-(4-fluorophenoxy)pyrrolidin-1-yl)propan-2-ol], the results for the pIC50 in assay [1] and in assay [2] were 6.62 and 6.85, respectively.

Take `OC(COC1CCCCC1)CN1CCN(Cc2ccccc2)CC1` (stereo not drawn) [Example 75, 1-(4-benzylpiperazin-1-yl)-3-(cyclohexyloxy)propan-2-ol]: the inhibition at 10 µM in assay [1] is 21%. For the same compound, the pIC50 in assay [2] was less than 5.38.

On to `Fc1ccc(OC2CCN(CCC3CCCOC3)CC2)cc1` (stereo not drawn) [Example 169, 4-(4-fluorophenoxy)-1-(2-(tetrahydro-2H-pyran-3-yl)ethyl)piperidine], for which the inhibition at 1 µM in assay [1] is 10%. In addition, the pIC50 in assay [2] was 6.55.

For `CN1CCN(CC2CCc3ccccc32)CC(Oc2ccc(F)cc2)C1` (stereo not drawn) [Example 277, 1-((2,3-dihydro-1H-inden-1-yl)methyl)-6-(4-fluorophenoxy)-4-methyl-1,4-diazepane], the inhibition at 1 µM in assay [1] stood at 31%. For the same compound, the pIC50 in assay [2] is 7.00.

For the compound `Fc1ccc(OC2COCCN(CC3CCc4ccccc43)C2)cc1` (stereo not drawn) [Example 276, 4-((2,3-dihydro-1H-inden-1-yl)methyl)-6-(4-fluorophenoxy)-1,4-oxazepane], the results for the negative logarithm of the IC50 (pIC50) in assay [1] and in assay [2] were 6.36 and 6.40, respectively.

For `Fc1ccc(COC2CCN(CC3CCOc4ccccc43)CC2)cc1` (stereo not drawn) [Example 249, 1-(chroman-4-ylmethyl)-4-((4-fluorobenzyl)oxy)piperidine], the pIC50 in assay [1] is 6.20; in assay [2], 6.68.

For the compound `c1ccc2c(c1)CCC1(CCN(CCO[C@H]3CCc4ccccc43)CC1)O2` [Example 432], the pIC50 in assay [1] was 6.44; in assay [2], 6.82.

Consider `Fc1ccc(OCCCN2CCN(c3nsc4ccccc34)CC2)cc1` [Example 73, 3-(4-(3-(4-fluorophenoxy)propyl)piperazin-1-yl)benzo[d]isothiazole], for which the inhibition at 10 µM in assay [1] stood at 91%. Moreover, in assay [2], the pIC50 is 8.70.

With `COc1ccc2c(c1)C(CN1CCC(Oc3ccccn3)CC1)CC2` (stereo not drawn) [Example 95, 2-((1-((6-methoxy-2,3-dihydro-1H-inden-1-yl)methyl)piperidin-4-yl)oxy)pyridine], the inhibition at 1 µM in assay [1] came out at 9%. In addition, the negative-log IC50 (pIC50) in assay [2] is 6.82.

Consider `COc1ccccc1OC1CCN(CC2Cc3cccnc3C2)CC1` (stereo not drawn) [Example 139, 6-((4-(2-methoxyphenoxy)piperidin-1-yl)methyl)-6,7-dihydro-5H-cyclopenta[b]pyridine], for which the inhibition at 1 µM in assay [1] is -10%. In addition, in assay [2], the pIC50 is 6.74.

`N#Cc1cccc2c1CCC2CN1CCC(Oc2ccc(F)cc2)CC1` (stereo not drawn) [Example 122, 1-((4-(4-fluorophenoxy)piperidin-1-yl)methyl)-2,3-dihydro-1H-indene-4-carbonitrile]: the pIC50 in assay [1] was 6.96; in assay [2], 7.05.

For the compound `OC(COc1ccccc1)CN1CCN(c2cccc(Cl)c2)CC1` (stereo not drawn) [Example 89, 1-(4-(3-chlorophenyl)piperazin-1-yl)-3-phenoxypropan-2-ol], the pIC50 in assay [1] is 6.36; in assay [2] it was 7.15.

On to `OC(COC1CCCCC1)CN1C[C@@H]2C[C@H](C1)N(c1ccccc1)C2` (stereo partly drawn) [Example 331, 1-(cyclohexyloxy)-3-((1S,5R)-6-phenyl-3,6-diazabicyclo[3.2.1]octan-3-yl)propan-2-ol], for which the pIC50 is 6.51 in assay [1] and 5.79 in assay [2].

`O[C@@H](COC1CCCCC1)CN1CC2(CC(c3ccccc3)CO2)C1` (stereo partly drawn) [Example 361, (2R)-1-(cyclohexyloxy)-3-(7-phenyl-5-oxa-2-azaspiro[3.4]octan-2-yl)propan-2-ol]: the pIC50 was 5.57 in assay [1] and 7.70 in assay [2].

Usually pIC50 stands for −log10 of the IC50, conventionally taken in molar units.
